In ChEMBL document CHEMBL1142256, “Phosphoramidate derivatives of hydroxysteroids as inhibitors of prostate-specific membrane antigen” (Bioorg Med Chem Lett, 2008):
pIC50: −log10 of the molar value.

Each compound was assayed against Glutamate carboxypeptidase 2 (Homo sapiens, UniProt Q04609) (assay: Inhibition of human PSMA).
Chain of Glutamate carboxypeptidase 2 (Q04609 whole entry): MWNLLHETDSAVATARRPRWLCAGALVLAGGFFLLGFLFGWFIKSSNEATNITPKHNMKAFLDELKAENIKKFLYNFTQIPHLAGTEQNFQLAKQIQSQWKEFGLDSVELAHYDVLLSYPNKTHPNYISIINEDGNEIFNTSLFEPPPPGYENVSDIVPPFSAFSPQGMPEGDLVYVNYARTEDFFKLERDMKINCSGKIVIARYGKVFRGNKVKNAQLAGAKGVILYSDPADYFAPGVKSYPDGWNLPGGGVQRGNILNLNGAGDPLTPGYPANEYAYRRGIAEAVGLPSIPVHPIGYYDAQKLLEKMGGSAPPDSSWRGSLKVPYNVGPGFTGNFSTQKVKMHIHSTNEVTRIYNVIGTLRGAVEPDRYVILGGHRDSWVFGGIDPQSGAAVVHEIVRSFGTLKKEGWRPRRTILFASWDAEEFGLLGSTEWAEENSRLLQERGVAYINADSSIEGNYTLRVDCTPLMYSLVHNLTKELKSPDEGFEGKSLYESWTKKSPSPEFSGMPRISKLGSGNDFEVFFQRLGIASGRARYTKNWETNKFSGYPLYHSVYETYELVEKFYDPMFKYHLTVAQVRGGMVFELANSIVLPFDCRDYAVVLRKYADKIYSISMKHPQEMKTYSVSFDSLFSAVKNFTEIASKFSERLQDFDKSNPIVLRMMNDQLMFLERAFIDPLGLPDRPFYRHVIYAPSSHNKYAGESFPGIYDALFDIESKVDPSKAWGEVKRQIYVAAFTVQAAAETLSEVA
C[C@]12CC[C@H](OCCCOP(=O)(O)N[C@@H](CCC(=O)O)C(=O)O)C[C@@H]1CC[C@@H]1[C@@H]2CC[C@]2(C)C(=O)CC[C@@H]12 gave a pIC50 of 6.36.
With C[C@]12CC[C@H](OP(=O)(O)N[C@@H](CCC(=O)O)C(=O)O)C[C@@H]1CC[C@@H]1[C@@H]2CC[C@]2(C)C(=O)CC[C@@H]12 the pIC50 was 6.24.
C[C@]12CC[C@@H]3c4ccc(OCCCOP(=O)(O)N[C@@H](CCC(=O)O)C(=O)O)cc4CC[C@H]3[C@@H]1CCC2=O gave a pIC50 of 6.85.
In the case of CC(C)CCC[C@@H](C)[C@H]1CC[C@H]2[C@@H]3CCC4C[C@@H](OP(=O)(O)N[C@@H](CCC(=O)O)C(=O)O)CC[C@]4(C)[C@H]3CC[C@]12C (stereo partly specified), the pIC50 was 6.36.
With C[C@]12CC[C@@H]3c4ccc(OC(=O)c5ccccc5)cc4CC[C@H]3[C@@H]1CC[C@@H]2OCCCOP(=O)(O)N[C@@H](CCC(=O)O)C(=O)O the pIC50 was 6.24.
CC(C)CCC[C@@H](C)[C@H]1CC[C@H]2[C@@H]3CCC4C[C@@H](OCCCOP(=O)(O)N[C@@H](CCC(=O)O)C(=O)O)CC[C@]4(C)[C@H]3CC[C@]12C (stereo partly specified) gave a pIC50 of 6.90.
